Laboratory results from article PMC4620497 (Scientific Reports, 2015).

Columns and labels:
BMX = target: T1, BMX (Homo sapiens, UniProt P51813); experiment: KINOMEscan panel screen; assay type: binding; details: read-out: Percent Control(%)
T1 construct: purchased DiscoveRx KINOMEscan (Ambit Biosciences)

MST4 = target: T2, MST4 (Homo sapiens, UniProt Q9P289); experiment: KINOMEscan panel screen; assay type: binding; details: read-out: Percent Control(%)
T2 construct: purchased DiscoveRx KINOMEscan (Ambit Biosciences)
T2 sequence (Q9P289 whole entry): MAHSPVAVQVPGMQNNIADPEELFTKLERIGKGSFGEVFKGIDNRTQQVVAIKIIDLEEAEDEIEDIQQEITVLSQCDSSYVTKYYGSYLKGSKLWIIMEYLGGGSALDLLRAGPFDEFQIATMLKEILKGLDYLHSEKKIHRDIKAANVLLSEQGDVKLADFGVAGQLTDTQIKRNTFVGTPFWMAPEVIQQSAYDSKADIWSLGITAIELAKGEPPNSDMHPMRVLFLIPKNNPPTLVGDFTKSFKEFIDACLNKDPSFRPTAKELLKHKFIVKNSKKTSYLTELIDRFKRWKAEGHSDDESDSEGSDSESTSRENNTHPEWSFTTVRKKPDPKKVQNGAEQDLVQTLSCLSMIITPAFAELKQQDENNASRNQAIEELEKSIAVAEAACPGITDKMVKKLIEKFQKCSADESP

PIK3CA(E545K) = target: T3, PIK3CA(E545K) (Homo sapiens, UniProt P42336, E545K); experiment: KINOMEscan panel screen; assay type: binding; details: read-out: Percent Control(%)
T3 construct: purchased DiscoveRx KINOMEscan (Ambit Biosciences)

FER = target: T4, FER (Homo sapiens, UniProt P16591); experiment: KINOMEscan panel screen; assay type: binding; details: read-out: Percent Control(%)
T4 construct: purchased DiscoveRx KINOMEscan (Ambit Biosciences)
T4 sequence (P16591 whole entry): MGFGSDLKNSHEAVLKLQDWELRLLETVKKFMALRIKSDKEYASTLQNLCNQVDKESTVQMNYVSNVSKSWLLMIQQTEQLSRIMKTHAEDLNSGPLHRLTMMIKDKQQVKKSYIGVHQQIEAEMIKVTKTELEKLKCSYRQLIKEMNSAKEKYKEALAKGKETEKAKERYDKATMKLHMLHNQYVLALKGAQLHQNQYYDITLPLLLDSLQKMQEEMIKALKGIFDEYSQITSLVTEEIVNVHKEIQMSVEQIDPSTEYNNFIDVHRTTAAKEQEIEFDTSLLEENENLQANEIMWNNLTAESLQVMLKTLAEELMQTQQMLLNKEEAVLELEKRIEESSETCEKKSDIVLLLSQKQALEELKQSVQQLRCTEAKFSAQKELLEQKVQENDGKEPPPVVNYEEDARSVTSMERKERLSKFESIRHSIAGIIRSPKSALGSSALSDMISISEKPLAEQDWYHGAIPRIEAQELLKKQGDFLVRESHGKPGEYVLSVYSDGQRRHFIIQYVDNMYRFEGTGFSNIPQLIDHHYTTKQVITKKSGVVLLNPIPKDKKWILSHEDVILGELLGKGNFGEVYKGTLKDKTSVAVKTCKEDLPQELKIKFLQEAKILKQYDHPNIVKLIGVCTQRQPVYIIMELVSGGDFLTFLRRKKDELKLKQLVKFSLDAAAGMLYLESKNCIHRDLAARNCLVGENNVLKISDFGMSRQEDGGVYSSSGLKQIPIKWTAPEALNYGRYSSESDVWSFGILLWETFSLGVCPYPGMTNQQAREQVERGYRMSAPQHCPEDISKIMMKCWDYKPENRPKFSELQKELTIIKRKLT

SGK2 = target: T5, SGK2 (Homo sapiens, UniProt Q9HBY8); experiment: KINOMEscan panel screen; assay type: binding; details: read-out: Percent Control(%)
T5 construct: purchased DiscoveRx KINOMEscan (Ambit Biosciences)

MARK2 = target: T6, MARK2 (Homo sapiens, UniProt Q7KZI7); experiment: KINOMEscan panel screen; assay type: binding; details: read-out: Percent Control(%)
T6 construct: purchased DiscoveRx KINOMEscan (Ambit Biosciences)

FLT3(ITD) = experiment: KINOMEscan panel screen; assay type: binding, human; details: 10 μM
EGFR(S752-I759del) = target: T7, EGFR(S752-I759del) (Homo sapiens, UniProt P00533, DEL752-759); experiment: KINOMEscan panel screen; assay type: binding; details: read-out: Percent Control(%)
T7 construct: purchased DiscoveRx KINOMEscan (Ambit Biosciences)

ROCK1 = ROCK1 (Homo sapiens, UniProt Q13464); experiment: KINOMEscan panel screen; assay type: binding; details: read-out: Percent Control(%)
ROCK1, sequence (Q13464 whole entry): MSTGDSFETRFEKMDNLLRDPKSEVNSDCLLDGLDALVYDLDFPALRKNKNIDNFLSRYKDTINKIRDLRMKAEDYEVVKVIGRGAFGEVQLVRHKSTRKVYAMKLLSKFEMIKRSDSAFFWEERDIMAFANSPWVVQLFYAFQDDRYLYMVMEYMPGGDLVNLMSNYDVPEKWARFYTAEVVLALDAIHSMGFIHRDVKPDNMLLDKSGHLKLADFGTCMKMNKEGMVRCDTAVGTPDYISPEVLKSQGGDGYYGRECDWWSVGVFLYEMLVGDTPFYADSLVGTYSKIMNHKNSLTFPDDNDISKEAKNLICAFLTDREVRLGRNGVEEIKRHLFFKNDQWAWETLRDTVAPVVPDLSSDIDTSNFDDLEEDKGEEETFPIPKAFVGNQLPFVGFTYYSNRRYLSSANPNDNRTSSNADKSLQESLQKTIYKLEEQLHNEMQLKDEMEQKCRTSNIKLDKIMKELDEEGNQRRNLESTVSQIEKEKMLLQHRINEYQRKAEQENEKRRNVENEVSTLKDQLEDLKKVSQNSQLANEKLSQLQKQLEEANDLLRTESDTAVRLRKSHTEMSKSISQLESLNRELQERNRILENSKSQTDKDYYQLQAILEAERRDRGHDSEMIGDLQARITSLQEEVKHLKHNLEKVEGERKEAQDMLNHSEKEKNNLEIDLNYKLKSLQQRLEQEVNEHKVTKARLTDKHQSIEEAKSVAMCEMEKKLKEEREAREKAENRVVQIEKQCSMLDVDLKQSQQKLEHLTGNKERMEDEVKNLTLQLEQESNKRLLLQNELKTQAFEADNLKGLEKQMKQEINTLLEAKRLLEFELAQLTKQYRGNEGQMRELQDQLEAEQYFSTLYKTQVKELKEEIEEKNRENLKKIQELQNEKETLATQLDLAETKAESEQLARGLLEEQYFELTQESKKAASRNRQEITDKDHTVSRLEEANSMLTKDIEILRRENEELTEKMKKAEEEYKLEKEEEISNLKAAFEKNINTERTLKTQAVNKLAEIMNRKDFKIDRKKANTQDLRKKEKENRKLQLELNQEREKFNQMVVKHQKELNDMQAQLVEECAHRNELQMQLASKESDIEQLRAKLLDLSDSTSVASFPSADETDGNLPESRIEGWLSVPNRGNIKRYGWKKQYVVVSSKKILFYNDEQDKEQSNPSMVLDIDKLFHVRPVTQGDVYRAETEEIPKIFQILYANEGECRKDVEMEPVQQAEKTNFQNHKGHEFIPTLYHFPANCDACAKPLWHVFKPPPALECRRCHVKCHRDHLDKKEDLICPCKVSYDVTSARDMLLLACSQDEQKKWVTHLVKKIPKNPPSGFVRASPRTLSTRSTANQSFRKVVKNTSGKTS

[1] = target: T8, ABL1(M351T)-phosphorylated (Homo sapiens, UniProt P00519, M351T); experiment: KINOMEscan panel screen; assay type: binding; details: read-out: Percent Control(%)
T8 construct: purchased DiscoveRx KINOMEscan (Ambit Biosciences)

[2] = target: T9, RSK1(Kin.Dom.1-N-terminal) (Homo sapiens, UniProt Q15418); experiment: KINOMEscan panel screen; assay type: binding; details: read-out: Percent Control(%)
T9 construct: RSK1(Kin.Dom.1-N-terminal); purchased DiscoveRx KINOMEscan (Ambit Biosciences)

MLK3 = target: T10, MLK3 (Homo sapiens, UniProt Q16584); experiment: KINOMEscan panel screen; assay type: binding; details: read-out: Percent Control(%)
T10 construct: purchased DiscoveRx KINOMEscan (Ambit Biosciences)

[3] = system: HSCs (LSK cells), WBC and RBC; experiment: Influence on normal HSCs and blood cells in Balb/c mice; assay type: in vivo, mouse; details: Balb/c mice, 1, 3, 10 mg/kg/d orally for 21 days
Description: To examine whether SKLB-677 has influence on normal HSCs and normal blood cells, we performed an experiment using a Balb/c mouse model, in which Balb/c mice (n = 8 in each group) were treated with indicated concentrations of SKLB-677 for 21 days, followed by detections of the proportion of HSCs (immunophenotypically characterized as Lineage^−Sca-1^+ c-Kit^+ (LSK) cells), white blood cell (WBC) and red blood cell (RBC) counts. […]
were d etected usin g BD FACSAriaⅢflow c ytometer.
Isolation of murine Bone Marrow ( BM) cells.
Balb/c mice were grouped to 4 groups (4 female mice and 4 male mice p er group) and orally treated with 0, 1, 3, and 10m g/kg/ d SKLB -677 for 21 da ys . […]
Supplementary Figure S7.The influence of SKLB -677 on mouse normal HSC and blood cells (8 mice in each group) . a ,b, The mice were o rally treat ed with indicated concentr ations o f S K LB -677 for 21d, and then W BC and RBC were counted using a blood anal yzer instrument. ns, not statistically significant. c , Th e mice were orally treated with indicated do ses of SK LB-677 for 21d, and the blood marrow cells were collected for the detection of HSC (immunophenot ypicall y ch aracterized as Lineage-Sca-1+c-Kit+, LSK) populationusing corresponding antibodies. d, The statistical data of HSC numbers. ns, not statistically significant. […]

MLK1 = target: T11, MLK1 (Homo sapiens, UniProt P80192); experiment: KINOMEscan panel screen; assay type: binding; details: read-out: Percent Control(%)
T11 construct: purchased DiscoveRx KINOMEscan (Ambit Biosciences)

LCK = LCK (Homo sapiens, UniProt P06239); experiment: KINOMEscan kinase binding assay (Kd)
JNK1 = target: T12, JNK1 (Homo sapiens, UniProt P45983); experiment: KINOMEscan panel screen; assay type: binding; details: read-out: Percent Control(%)
T12 construct: purchased DiscoveRx KINOMEscan (Ambit Biosciences)

PRKX = target: T13, PRKX (Homo sapiens, UniProt P51817); experiment: KINOMEscan panel screen; assay type: binding; details: read-out: Percent Control(%)
T13 construct: purchased DiscoveRx KINOMEscan (Ambit Biosciences)
T13 sequence (P51817 whole entry): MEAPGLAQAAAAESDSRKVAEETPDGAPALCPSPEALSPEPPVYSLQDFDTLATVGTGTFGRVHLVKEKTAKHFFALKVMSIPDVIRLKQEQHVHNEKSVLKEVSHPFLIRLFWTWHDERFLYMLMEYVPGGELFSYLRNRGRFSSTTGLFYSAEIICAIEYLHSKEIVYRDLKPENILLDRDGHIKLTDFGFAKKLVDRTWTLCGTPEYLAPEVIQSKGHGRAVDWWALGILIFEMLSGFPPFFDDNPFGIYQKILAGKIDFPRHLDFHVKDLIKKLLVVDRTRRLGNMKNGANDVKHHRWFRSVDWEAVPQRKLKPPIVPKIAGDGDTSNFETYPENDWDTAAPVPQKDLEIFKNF

THP-1 = experiment: MTT cell viability assay; details: Homo sapiens, THP-1, 72 h
PRKD1 = target: T14, PRKD1 (Homo sapiens, UniProt Q15139); experiment: KINOMEscan panel screen; assay type: binding; details: read-out: Percent Control(%)
T14 construct: purchased DiscoveRx KINOMEscan (Ambit Biosciences)
T14 sequence (Q15139 whole entry): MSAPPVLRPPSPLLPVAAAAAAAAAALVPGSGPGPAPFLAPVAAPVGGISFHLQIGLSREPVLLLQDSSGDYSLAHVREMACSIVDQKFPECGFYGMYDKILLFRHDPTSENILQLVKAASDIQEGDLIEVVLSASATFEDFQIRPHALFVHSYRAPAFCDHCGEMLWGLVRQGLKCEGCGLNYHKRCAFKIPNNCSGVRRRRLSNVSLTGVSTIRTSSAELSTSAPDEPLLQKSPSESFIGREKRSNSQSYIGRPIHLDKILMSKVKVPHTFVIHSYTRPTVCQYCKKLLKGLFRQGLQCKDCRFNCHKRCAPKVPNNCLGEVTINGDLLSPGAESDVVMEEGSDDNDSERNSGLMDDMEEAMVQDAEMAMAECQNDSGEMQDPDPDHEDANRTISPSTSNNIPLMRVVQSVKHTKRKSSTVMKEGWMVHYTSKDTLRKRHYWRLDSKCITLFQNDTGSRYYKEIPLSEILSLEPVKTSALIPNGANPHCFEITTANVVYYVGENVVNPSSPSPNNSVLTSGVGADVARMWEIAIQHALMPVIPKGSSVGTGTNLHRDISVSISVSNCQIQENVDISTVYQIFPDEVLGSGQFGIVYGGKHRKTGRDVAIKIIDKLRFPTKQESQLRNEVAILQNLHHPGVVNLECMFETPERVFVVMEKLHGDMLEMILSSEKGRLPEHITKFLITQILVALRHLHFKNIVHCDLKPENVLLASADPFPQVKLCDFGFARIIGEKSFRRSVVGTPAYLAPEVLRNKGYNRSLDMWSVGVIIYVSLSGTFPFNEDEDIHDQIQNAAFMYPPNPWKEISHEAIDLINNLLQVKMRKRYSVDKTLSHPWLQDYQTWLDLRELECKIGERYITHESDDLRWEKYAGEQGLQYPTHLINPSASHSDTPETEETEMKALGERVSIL

GSK3A = target: T15, GSK3A (Homo sapiens, UniProt P49840); experiment: KINOMEscan panel screen; assay type: binding; details: read-out: Percent Control(%)
T15 construct: purchased DiscoveRx KINOMEscan (Ambit Biosciences)

PKN2 = target: T16, PKN2 (Homo sapiens, UniProt Q16513); experiment: KINOMEscan panel screen; assay type: binding; details: read-out: Percent Control(%)
T16 construct: purchased DiscoveRx KINOMEscan (Ambit Biosciences)

[4] = system: total β-catenin and active β-catenin in STF3a cells; experiment: Western blot of β-catenin in STF3a cells; assay type: cell-based; details: 10 μM or above, 24 h
[5] = target: T17, ABL1(T315I)-phosphorylated (Homo sapiens, UniProt P00519, T315I); experiment: KINOMEscan panel screen; assay type: binding; details: read-out: Percent Control(%)
T17 construct: purchased DiscoveRx KINOMEscan (Ambit Biosciences)

TXK = target: T18, TXK (Homo sapiens, UniProt P42681); experiment: KINOMEscan panel screen; assay type: binding; details: read-out: Percent Control(%)
T18 construct: purchased DiscoveRx KINOMEscan (Ambit Biosciences)

CAMK2A = target: T19, CAMK2A (Homo sapiens, UniProt Q9UQM7); experiment: KINOMEscan panel screen; assay type: binding; details: read-out: Percent Control(%)
T19 construct: purchased DiscoveRx KINOMEscan (Ambit Biosciences)
T19 sequence (Q9UQM7 whole entry): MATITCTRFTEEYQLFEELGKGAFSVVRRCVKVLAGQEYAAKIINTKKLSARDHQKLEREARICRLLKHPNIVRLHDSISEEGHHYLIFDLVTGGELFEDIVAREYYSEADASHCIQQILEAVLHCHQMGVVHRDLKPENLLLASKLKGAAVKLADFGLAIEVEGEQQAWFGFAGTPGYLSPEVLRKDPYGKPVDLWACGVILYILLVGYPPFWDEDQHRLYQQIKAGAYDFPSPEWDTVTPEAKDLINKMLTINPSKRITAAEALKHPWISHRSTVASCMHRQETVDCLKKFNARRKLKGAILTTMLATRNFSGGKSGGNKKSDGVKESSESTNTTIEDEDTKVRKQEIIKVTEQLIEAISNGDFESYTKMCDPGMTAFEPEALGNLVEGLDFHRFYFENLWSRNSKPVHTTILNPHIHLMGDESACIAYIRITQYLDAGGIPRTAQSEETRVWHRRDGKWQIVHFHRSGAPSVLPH

CASK = target: T20, CASK (Homo sapiens, UniProt O14936); experiment: KINOMEscan panel screen; assay type: binding; details: read-out: Percent Control(%)
T20 construct: purchased DiscoveRx KINOMEscan (Ambit Biosciences)

DAPK2 = target: T21, DAPK2 (Homo sapiens, UniProt Q9UIK4); experiment: KINOMEscan panel screen; assay type: binding; details: read-out: Percent Control(%)
T21 construct: purchased DiscoveRx KINOMEscan (Ambit Biosciences)

TNNI3K = target: T22, TNNI3K (Homo sapiens, UniProt Q59H18); experiment: KINOMEscan panel screen; assay type: binding; details: read-out: Percent Control(%)
T22 construct: purchased DiscoveRx KINOMEscan (Ambit Biosciences)

T1 sequence (P51813 whole entry): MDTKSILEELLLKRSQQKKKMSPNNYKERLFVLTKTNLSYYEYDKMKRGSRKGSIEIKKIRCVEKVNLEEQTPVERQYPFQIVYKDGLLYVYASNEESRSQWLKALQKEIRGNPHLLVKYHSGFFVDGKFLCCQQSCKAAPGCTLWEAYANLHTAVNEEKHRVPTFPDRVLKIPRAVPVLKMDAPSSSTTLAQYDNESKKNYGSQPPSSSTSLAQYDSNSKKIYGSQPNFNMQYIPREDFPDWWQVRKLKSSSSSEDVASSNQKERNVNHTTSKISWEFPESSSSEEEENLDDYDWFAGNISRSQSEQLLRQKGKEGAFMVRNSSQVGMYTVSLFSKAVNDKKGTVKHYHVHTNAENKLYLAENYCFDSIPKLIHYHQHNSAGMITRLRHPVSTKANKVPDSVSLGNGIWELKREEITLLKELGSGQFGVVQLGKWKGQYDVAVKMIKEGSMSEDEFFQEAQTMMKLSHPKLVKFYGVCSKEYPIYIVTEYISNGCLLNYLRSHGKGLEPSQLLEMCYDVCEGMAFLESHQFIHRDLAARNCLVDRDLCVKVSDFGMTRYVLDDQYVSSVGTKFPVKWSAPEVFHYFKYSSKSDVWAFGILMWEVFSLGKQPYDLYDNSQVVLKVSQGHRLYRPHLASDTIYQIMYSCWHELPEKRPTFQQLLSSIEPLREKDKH

CC(C)(C)c1cc(NC(=O)Nc2ccc(Oc3ncnc4[nH]ncc34)c(F)c2)no1 [SKLB-677, 1-(4-(1H-pyrazolo[3,4-d]pyrimidin-4-yloxy)-3-fluorophenyl)-3-(5-tert-butylisoxazol-3-yl)urea]
remaining binding at 10 µM (BMX): 73% | remaining binding at 10 µM (MST4): 24% | remaining binding at 10 µM (PIK3CA(E545K)): 100% | remaining binding at 10 µM (FER): 24% | remaining binding at 10 µM (SGK2): 78% | remaining binding at 10 µM (MARK2): 98% | Percent Control(%) (FLT3(ITD)): 0.05% | remaining binding at 10 µM (EGFR(S752-I759del)): 38% | remaining binding at 10 µM (ROCK1): 100% | remaining binding at 10 µM [1]: 5.6% | remaining binding at 10 µM [2]: 100% | remaining binding at 10 µM (MLK3): 24% | HSCs (LSK cells) [3]: not inhibited | white and red blood counts [3]: normal | remaining binding at 10 µM (MLK1): 42% | Kd (LCK): 130 nM | remaining binding at 10 µM (JNK1): 52% | remaining binding at 10 µM (PRKX): 44% | IC50 (THP-1): > 10 µM | remaining binding at 10 µM (PRKD1): 98% | remaining binding at 10 µM (GSK3A): 30% | remaining binding at 10 µM (PKN2): 100% | protein levels of the total β-catenin and active β-catenin [4]: slightly decreased | remaining binding at 10 µM [5]: 3.3% | remaining binding at 10 µM (TXK): 88% | remaining binding at 10 µM (CAMK2A): 73% | remaining binding at 10 µM (CASK): 59% | remaining binding at 10 µM (DAPK2): 83% | remaining binding at 10 µM (TNNI3K): 0%
